In US20190062277A1, “FARNESOID X RECEPTOR AGONISTS AND USES THEREOF” (Metacrine, Inc., priority 2015, published 2019):

How the values were obtained:
FXR [1] = biological target: T1, FXR (Homo sapiens, UniProt Q96RI1); experiment: In Vitro FXR Assay (PGL3), luciferase reporter in transfected CV-1 cells; format: cell-based; set-up: plasmids XPD90Gal pCMXhFXRfl, pCMXhRXRfl+PGL3-ECRE*6-luc+CMX-YFP; expressed in transfected cells; host or cells: CV-1 cells; conditions: CV-1 cells transfected with hFXR, hRXR, PGL3-ECRE*6-luc; 18 hrs incubation; luminescence
T1 sequence (Q96RI1 1-486): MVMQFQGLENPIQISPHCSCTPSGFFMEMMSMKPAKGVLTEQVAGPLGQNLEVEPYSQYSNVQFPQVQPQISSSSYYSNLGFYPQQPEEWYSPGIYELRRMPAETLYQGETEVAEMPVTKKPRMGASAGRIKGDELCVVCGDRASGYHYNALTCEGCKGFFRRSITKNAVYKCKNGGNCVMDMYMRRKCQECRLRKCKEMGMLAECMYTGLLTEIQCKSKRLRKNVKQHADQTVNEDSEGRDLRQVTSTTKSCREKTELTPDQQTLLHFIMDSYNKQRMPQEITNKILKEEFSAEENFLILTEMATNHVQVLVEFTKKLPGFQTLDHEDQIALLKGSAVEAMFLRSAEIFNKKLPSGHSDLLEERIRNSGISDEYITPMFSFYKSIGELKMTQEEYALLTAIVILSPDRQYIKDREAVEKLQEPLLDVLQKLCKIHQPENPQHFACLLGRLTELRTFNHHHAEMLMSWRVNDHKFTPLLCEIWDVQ
T1 sequence (P19793 1-462 partner): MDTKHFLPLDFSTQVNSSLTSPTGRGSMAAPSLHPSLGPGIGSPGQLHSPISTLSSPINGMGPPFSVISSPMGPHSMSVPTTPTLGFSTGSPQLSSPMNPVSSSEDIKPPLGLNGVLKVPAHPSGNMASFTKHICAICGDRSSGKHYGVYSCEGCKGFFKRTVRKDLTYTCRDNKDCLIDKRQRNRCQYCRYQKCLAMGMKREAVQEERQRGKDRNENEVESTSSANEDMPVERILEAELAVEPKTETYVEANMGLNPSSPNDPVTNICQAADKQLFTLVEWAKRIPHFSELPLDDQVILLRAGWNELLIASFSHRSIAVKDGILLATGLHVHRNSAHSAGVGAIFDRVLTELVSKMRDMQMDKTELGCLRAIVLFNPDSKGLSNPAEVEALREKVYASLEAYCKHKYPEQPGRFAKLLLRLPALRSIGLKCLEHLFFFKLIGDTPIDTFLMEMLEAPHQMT
Description: Example B-1: In Vitro FXR Assay (PGL3)
CV-1 cells were seeded at a density of 2,000,000 cells in a T175 flask with DMEM+10% charcoal double-stripped FBS and incubated at 37° C. in a 5% CO2 for 18 h (0/N).
After 18 h of incubation, the medium in the T175 flask was changed with fresh DMEM+10% charcoal super-stripped serum.
To prepare the transfection reaction mixture, the transfection reagent (X-tremeGENE HP from Roche, Cat #06 366 236 001) was added in to a 1.5 mL microcentrifuge tube labelled “A” at a ratio of 1:3 (DNA in μg: transfection reagent in μL). OptiMEM medium (Life Technologies, Cat #31985-062) was added accordingly to provide a total volume of 1 mL. The transfection reaction mixture was then briefly vortexed and incubated at room temperature for 5 minutes.
In a separate 1.5 mL microcentrifuge tube labelled “B”, 100 μL OptiMEM and plasmids XPD90Gal pCMXhFXRfl, pCMXhRXRfl+PGL3-ECRE*6-luc+CMX-YFP in the ratio 2 μg: 2 μg:18 μg:3 μg were added. This microcentrifuge tube “B” was then briefly vortexed and incubated at room temperature for 5 minutes.
The total volume in tube labelled “A” was then transferred in to tube labelled “B.” The mixture was then briefly vortexed and the transfection:DNA complex was then incubated for about 15-20 minutes at room temperature.
Following incubation, the transfection reagent/DNA mixture complex was then added to cells in the T175 flask and the cells were incubated at […] (0/N) at 37° C. in 5% CO2.
In a 96 well plate, a half logarithmic serial dilution was prepared. OptiMEM was used as the diluent. Using any of one of the compounds described herein, a compound stock solution of 10 mM was prepared. An initial 1:100 dilution was made into the first well for a final concentration of 100 μM. The final concentrations in the 96-well plate was prepared by using a multichannel pipette to transfer 5 μL of the diluted compound to 384-well plate in quadruplicate.
Cells in T175 flask were trypsinized and cells were resuspending in 40 mL phenol red free DMEM+10% charcoal super-stripped FBS. Typically, one T175 flask was sufficient to seed two 384 well plates. CV-1 cells were seeded at 45 μL cell suspension/well using a multi-channel pipet or a 384 multidrop dispenser. The cells were then incubated for 18 hrs, overnight.
After removing the plates from the incubator, the medium was flicked out of plate and 384 well plate was turned upside down onto paper towel. The remaining medium was gently tapped out. 15 μL lysis buffer was then added to each well using a multichannel pipet or a 384 well multi-drop dispenser. After incubation for 10 minutes at room temperature on shaker, 30 μL Luciferase buffer was added to each well. Luminescence counts were taken immediately using the Perkin Elmer Envision.
The ability of the compounds disclosed herein to […] FXR activity was quantified and the respective EC50 value was determined. Fex=fexaramine.

FXR [2] = biological target: T1, FXR; experiment: In Vitro FXR Assay (TK), luciferase reporter in transfected CV-1 cells; format: cell-based; set-up: expressed in transfected cells; host or cells: CV-1 cells; conditions: CV-1 cells transfected with hFXR, hRXR, TK-ECRE-luc; 18 hrs incubation; luminescence; maximum efficacy <25% of Fexaramine control also classified '+'
Description: Example B-2: In Vitro FXR Assay (TK)
CV-1 cells were seeded at a density of 2,000,000 cells in a T175 flask with DMEM+10% charcoal double-stripped FBS and incubated at 37° C. in 5% CO2 for 18 h (0/N).
After 18 h of incubation, the medium in the T175 flask was changed with fresh DMEM+10% charcoal super-stripped serum. In a polypropylene tube, 2500 μL OptiMEM (Life Technologies, Cat #31985-062) was combined with expression plasmids for hFXR, hRXR, TK-ECRE-luc and pCMX-YFP. The tube was then briefly vortexed and incubated at room temperature for 5 minutes. Transfection reagent (X-tremeGENE HP from Roche, Cat #06 366 236 001) was added to the OptiMEM/plasmid mixture vortexed and incubated at room temperature for 20 minutes. Following incubation, the transfection reagent/DNA mixture complex was added to cells in the T175 flask and the cells were incubated at 37° C. in 5% CO2 for 18 h (O/N).
Compounds were serially diluted in DMSO and added to transfected CV-1 cells. The cells were then incubated for 18 hrs. The next day cells were lysed and examined for luminescence.

| Cmpd/Fex (ratio of the EC50 for the test compound relative to the EC50 of the Fexaramine control) (FXR [1]) | EC50 (FXR [2]) [µM] | SMILES |
| --- | --- | --- |
| +++ (‘+++’ means Cmpd/Fex <10) | 1 to 10 | COC(=O)/C=C/c1cccc(N(Cc2ccc(-c3ccc(N(C)C)cc3)nc2)C(=O)C2CCCCC2)c1 [Compound 1, (E)-Methyl 3-(3-(N-((6-(4-(dimethylamino)phenyl)pyridin-3-yl)methyl)cyclohexanecarboxamido)phenyl)acrylate] |
| +++ (‘+++’ means Cmpd/Fex <10) | ≤ 1 | COC(=O)/C=C/c1cccc(N(CC2CCN(c3ccc(N(C)C)cc3)CC2)C(=O)C2CCCCC2)c1 [Compound 2, (E)-Methyl 3-(3-(N-((1-(4-(dimethylamino)phenyl)piperidin-4-yl)methyl)cyclohexanecarboxamido)phenyl)acrylate] |
| + (‘+’ means Cmpd/Fex >100) | ≥ 10 | COC(=O)/C=C/c1cccc(N(C[C@@H]2CCN(c3ccc(N(C)C)cc3)C2)C(=O)C2CCCCC2)c1 [Compound 3, (R,E)-Methyl 3-(3-(N-((1-(4-(dimethylamino)phenyl)pyrrolidin-3-yl)methyl)cyclohexanecarboxamido)phenyl) acrylate] |
| ++ (‘++’ means Cmpd/Fex >10 & <100) | 1 to 10 | COC(=O)/C=C/c1cccc(N(C[C@H]2CCN(c3ccc(N(C)C)cc3)C2)C(=O)C2CCCCC2)c1 [Compound 4, (S,E)-Methyl 3-(3-(N-((1-(4-(dimethylamino)phenyl)pyrrolidin-3-yl)methyl)cyclohexanecarboxamido)phenyl) acrylate] |
| – | ≥ 10 | COC(=O)/C=C/c1cccc(N(CC2CN(c3ccc(N(C)C)cc3)C2)C(=O)C2CCCCC2)c1 [Compound 4.1, (E)-Methyl 3-(3-(N-((1-(4-(dimethylamino)phenyl)azetidin-3-yl)methyl)cyclohexanecarboxamido)phenyl) acrylate] |
| +++ (‘+++’ means Cmpd/Fex <10) | ≤ 1 | COC(=O)/C=C/c1cccc(N(CC2CCN(c3ccc(C)cc3)CC2)C(=O)C2CCCCC2)c1 [Compound 5, (E)-Methyl 3-(3-(N-((1-(p-tolyl)piperidin-4-yl)methyl)cyclohexanecarboxamido)phenyl)acrylate] |
| + (‘+’ means Cmpd/Fex >100) | ≥ 10 | CN(C)c1ccc(N2CCC(CN(C(=O)C3CCCCC3)c3cccc(/C=C/C(=O)O)c3)CC2)cc1 [Compound 6, (E)-3-(3-(N-((1-(4-(Dimethylamino)phenyl)piperidin-4-yl)methyl)cyclohexanecarboxamido)phenyl)acrylic acid] |
| – | 1 to 10 | COc1ccc([C@H]2CC[C@H](CN(C(=O)C3CCCCC3)c3cccc(/C=C/C(=O)O)c3)CC2)cc1C [Compound 6.1, trans-(E)-3-(3-(N-((4-(4-Methoxy-3-methylphenyl)cyclohexyl)methyl)cyclohexanecarboxamido)phenyl)acrylic acid] |
| – | ≤ 1 | COC(=O)/C=C/c1cccc(N(C[C@H]2CC[C@H](c3ccc(OC)c(C)c3)CC2)C(=O)C2CCCCC2)c1 [Compound 8, trans-(E)-Methyl 3-(3-(N-((4-(4-methoxy-3-methylphenyl)cyclohexyl)methyl)cyclohexanecarboxamido)phenyl)acrylate] |
| – | ≤ 1 | COC(=O)/C=C/c1cccc(N(C[C@H]2CC[C@H](c3ccc(OC)c(C)c3)CC2)C(=O)CC(C)(C)C)c1 [Compound 9, trans-(E)-Methyl 3-(3-(N-((4-(4-methoxy-3-methylphenyl)cyclohexyl)methyl)-3,3-dimethylbutanamido)phenyl)acrylate] |
| – | ≤ 1 | COc1ccc([C@H]2CC[C@H](CN(C(=O)C3CCCCC3)c3cccc(/C=C/C(=O)OC(C)C)c3)CC2)cc1C [Compound 10, trans-(E)-Isopropyl 3-(3-(N-((4-(4-methoxy-3-methylphenyl)cyclohexyl)methyl)cyclohexanecarboxamido)phenyl)acrylate] |
| – | ≤ 1 | COc1ccc([C@H]2CC[C@H](CN(C(=O)CC(C)(C)C)c3cccc(/C=C/C(=O)OC(C)C)c3)CC2)cc1C [Compound 11, trans-(E)-Isopropyl 3-(3-(N-((4-(4-methoxy-3-methylphenyl)cyclohexyl)methyl)-3,3-dimethylbutanamido)phenyl)acrylate] |
| – | ≥ 10 | COC(=O)/C=C/c1cccc(N(C[C@H]2CC[C@@H](c3ccc(OC)c(C)c3)CC2)C(=O)C2CCCCC2)c1 [Compound 12, cis-(E)-Methyl 3-(3-(N-((4-(4-methoxy-3-methylphenyl)cyclohexyl)methyl)cyclohexanecarboxamido)phenyl)acrylate] |
| – | ≤ 1 | COc1ccc([C@H]2CC[C@H](CN(c3cccc(/C=C/C(=O)OC(C)C)c3)C(=O)[C@H]3CC[C@H](O)CC3)CC2)cc1C [Compound 13, trans-(E)-Isopropyl 3-(3-(trans-4-hydroxy-N-((4-(4-methoxy-3-methylphenyl)cyclohexyl)methyl)cyclohexanecarboxamido)phenyl)acrylate] |
| – | ≤ 1 | COC(=O)/C=C/c1cccc(N(C[C@H]2CC[C@H](c3ccc(OC)c(C)c3)CC2)C(=O)[C@H]2CC[C@H](O)CC2)c1 [Compound 14, trans-(E)-Methyl 3-(3-(trans-4-hydroxy-N-((4-(4-methoxy-3-methylphenyl)cyclohexyl)methyl)cyclohexanecarboxamido)phenyl)acrylate] |
